From the kinase profiling compilation of Christmann-Franck et al. (2016)
Several values for one entry are separate records, joined by “and”; a condition that tells them apart may be missing. Equal values may be shown once.

How the values were obtained:
Assay in all cases: radiometric filter-binding kinase assay, Kinase HotSpot
Conditions in all cases: compound 0.5 µM; ATP 10 µM
EPHA3 (human) = EPHA3 (human) (UniProt P29320)
CDK3 CCNE1 (human) = CDK3 CCNE1 (human) (UniProt Q00526+P24864)
CLK2 (human) = CLK2 (human) (UniProt P49760)
NLK (human) = NLK (human) (UniProt Q9UBE8)
NEK6 (human) = NEK6 (human) (UniProt Q9HC98)
WNK2 (human) = WNK2 (human) (UniProt Q9Y3S1)
MAP4K4 (human) = MAP4K4 (human) (UniProt O95819)
Sequence of MAP4K4 (human) (O95819 whole entry, looked up): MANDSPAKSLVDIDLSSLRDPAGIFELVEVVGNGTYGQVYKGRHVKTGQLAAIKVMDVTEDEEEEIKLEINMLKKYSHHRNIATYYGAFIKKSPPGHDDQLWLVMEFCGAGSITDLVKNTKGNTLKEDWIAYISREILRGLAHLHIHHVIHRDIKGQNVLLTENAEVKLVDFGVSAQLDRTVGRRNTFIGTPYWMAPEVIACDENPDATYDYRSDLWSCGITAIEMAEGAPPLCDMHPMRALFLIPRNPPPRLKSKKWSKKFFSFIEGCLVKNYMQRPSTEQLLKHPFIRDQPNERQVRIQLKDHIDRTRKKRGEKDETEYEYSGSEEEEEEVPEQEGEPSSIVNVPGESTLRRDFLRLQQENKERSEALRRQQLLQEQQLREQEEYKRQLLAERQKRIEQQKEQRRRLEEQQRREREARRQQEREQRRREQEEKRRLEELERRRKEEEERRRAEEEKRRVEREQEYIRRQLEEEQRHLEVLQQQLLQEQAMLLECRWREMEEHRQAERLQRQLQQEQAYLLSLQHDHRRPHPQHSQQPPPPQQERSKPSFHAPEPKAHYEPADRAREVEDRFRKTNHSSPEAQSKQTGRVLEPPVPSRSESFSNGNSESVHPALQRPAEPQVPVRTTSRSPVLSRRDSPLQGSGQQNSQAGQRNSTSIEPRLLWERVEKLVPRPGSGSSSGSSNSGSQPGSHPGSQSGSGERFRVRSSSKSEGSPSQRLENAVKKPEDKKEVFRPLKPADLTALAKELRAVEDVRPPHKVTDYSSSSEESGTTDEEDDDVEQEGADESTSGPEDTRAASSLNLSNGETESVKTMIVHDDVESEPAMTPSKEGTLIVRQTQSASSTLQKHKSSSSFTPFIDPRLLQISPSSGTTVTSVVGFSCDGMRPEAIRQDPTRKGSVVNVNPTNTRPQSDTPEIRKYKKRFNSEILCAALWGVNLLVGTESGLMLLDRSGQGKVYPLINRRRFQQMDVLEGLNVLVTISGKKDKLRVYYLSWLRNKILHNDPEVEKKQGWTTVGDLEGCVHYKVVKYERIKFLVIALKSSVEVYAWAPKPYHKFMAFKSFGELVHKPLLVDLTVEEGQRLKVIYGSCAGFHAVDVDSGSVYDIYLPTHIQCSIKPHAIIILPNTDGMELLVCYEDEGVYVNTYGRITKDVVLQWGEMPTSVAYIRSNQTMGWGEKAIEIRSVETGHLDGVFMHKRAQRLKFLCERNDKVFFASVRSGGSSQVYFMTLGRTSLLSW

RPS6KA1 KD1 KD2 (human) = RPS6KA1 KD1 KD2 (human) (UniProt Q15418)
FGR (human) = FGR (human) (UniProt P09769)
Sequence of FGR (human) (P09769 whole entry, looked up): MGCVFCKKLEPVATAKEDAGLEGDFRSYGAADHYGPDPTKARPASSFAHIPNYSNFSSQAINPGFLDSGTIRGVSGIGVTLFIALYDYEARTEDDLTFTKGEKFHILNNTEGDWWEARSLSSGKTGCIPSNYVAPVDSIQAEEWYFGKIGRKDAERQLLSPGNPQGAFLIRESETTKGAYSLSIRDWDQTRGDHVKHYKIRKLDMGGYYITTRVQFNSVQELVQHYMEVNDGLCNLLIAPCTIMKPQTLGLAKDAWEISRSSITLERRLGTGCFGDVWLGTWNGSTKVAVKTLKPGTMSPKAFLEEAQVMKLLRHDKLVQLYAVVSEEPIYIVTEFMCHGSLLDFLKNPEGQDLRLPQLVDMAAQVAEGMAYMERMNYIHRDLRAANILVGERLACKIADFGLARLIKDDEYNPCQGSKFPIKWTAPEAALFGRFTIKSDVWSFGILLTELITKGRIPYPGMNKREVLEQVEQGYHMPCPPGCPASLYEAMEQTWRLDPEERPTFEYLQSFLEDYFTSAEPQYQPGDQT

FES (human) = FES (human) (UniProt P07332)
CHUK (human) = CHUK (human) (UniProt O15111)
TNK2 (human) = TNK2 (human) (UniProt Q07912)
MELK (human) = MELK (human) (UniProt Q14680)
ULK2 (human) = ULK2 (human) (UniProt Q8IYT8)
CSNK1G2 (human) = CSNK1G2 (human) (UniProt P78368)
Sequence of CSNK1G2 (human) (P78368 whole entry, looked up): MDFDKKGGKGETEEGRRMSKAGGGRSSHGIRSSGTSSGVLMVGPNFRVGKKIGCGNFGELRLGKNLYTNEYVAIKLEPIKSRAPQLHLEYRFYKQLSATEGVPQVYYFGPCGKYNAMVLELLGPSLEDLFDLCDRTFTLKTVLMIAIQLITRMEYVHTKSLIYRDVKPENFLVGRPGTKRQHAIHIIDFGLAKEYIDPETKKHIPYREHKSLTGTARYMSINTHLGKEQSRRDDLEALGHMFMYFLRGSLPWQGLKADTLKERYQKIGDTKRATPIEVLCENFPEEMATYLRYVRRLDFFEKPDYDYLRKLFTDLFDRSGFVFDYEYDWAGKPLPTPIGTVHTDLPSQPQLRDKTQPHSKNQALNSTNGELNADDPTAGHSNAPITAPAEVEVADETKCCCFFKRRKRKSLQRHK

LTK (human) = LTK (human) (UniProt P29376)
BLK (human) = BLK (human) (UniProt P51451)
RPS6KB1 (human) = RPS6KB1 (human) (UniProt P23443)
LCK (human) = LCK (human) (UniProt P06239)
PTK2 (human) = PTK2 (human) (UniProt Q05397)
PRKCB2 (human) = PRKCB2 (human) (UniProt P05771)
MERTK (human) = MERTK (human) (UniProt Q12866)
MAPK9 (human) = MAPK9 (human) (UniProt P45984)
PKN1 (human) = PKN1 (human) (UniProt Q16512)
RPS6KA6 KD1 KD2 (human) = RPS6KA6 KD1 KD2 (human) (UniProt Q9UK32)
TEC (human) = TEC (human) (UniProt P42680)
CHEK1 (human) = CHEK1 (human) (UniProt O14757)
Sequence of CHEK1 (human) (O14757 whole entry, looked up): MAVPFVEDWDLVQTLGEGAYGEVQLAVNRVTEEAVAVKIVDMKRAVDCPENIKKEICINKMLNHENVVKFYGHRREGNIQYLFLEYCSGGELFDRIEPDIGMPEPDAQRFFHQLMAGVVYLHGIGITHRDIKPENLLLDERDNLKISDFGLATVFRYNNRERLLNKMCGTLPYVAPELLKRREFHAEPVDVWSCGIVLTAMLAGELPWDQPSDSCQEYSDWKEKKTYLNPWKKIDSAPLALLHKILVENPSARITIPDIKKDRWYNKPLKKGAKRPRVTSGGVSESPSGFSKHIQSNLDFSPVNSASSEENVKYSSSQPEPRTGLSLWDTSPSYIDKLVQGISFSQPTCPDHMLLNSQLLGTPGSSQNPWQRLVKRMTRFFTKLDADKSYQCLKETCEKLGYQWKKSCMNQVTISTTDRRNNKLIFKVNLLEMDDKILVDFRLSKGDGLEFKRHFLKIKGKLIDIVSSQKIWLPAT

PDGFRB (human) = PDGFRB (human) (UniProt P09619)
MAPK10 (human) = MAPK10 (human) (UniProt P53779)
Sequence of MAPK10 (human) (P53779 whole entry, looked up): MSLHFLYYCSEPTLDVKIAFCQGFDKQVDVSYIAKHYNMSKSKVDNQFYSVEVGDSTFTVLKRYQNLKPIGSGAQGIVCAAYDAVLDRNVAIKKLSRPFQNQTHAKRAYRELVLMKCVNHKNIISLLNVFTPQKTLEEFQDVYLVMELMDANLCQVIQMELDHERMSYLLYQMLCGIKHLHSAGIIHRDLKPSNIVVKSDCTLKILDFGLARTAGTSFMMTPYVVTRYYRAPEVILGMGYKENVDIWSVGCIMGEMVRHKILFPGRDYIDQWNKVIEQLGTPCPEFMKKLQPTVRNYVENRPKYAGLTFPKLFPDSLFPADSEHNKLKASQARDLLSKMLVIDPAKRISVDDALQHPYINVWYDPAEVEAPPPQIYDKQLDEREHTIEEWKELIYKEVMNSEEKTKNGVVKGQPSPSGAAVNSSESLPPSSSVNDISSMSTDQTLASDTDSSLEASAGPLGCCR

FYN (human) = FYN (human) (UniProt P06241)
Sequence of FYN (human) (P06241 whole entry, looked up): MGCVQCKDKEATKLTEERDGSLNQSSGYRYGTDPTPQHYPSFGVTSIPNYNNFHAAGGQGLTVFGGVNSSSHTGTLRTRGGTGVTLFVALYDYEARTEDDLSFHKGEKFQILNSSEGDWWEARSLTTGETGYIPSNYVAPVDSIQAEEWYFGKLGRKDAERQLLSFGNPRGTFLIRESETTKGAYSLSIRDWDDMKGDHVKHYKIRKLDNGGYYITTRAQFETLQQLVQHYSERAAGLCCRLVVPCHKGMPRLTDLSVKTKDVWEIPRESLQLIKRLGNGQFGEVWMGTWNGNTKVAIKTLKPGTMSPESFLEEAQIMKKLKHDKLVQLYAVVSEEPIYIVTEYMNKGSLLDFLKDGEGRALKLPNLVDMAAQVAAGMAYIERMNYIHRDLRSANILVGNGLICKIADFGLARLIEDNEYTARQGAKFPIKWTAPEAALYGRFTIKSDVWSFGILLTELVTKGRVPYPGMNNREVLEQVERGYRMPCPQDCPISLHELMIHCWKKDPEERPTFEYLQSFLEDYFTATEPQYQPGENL

PRKG1 (human) = PRKG1 (human) (UniProt Q13976)
Sequence of PRKG1 (human) (Q13976 whole entry, looked up): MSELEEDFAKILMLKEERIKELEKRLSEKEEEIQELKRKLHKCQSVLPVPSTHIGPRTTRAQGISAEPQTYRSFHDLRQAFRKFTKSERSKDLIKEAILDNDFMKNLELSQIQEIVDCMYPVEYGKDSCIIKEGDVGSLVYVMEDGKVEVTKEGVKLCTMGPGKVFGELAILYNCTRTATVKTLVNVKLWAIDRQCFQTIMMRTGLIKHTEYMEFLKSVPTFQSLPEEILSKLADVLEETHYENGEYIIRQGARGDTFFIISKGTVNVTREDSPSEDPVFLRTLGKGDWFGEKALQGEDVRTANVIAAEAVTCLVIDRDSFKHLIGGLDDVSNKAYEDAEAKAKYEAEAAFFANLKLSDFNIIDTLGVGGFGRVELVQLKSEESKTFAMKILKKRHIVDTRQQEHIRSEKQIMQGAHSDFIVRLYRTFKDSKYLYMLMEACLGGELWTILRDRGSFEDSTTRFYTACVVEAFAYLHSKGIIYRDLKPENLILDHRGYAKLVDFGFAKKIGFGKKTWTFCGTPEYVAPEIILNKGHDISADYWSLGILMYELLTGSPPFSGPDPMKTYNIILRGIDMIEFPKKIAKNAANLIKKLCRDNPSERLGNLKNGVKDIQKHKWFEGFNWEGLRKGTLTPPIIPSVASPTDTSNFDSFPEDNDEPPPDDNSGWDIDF

MAP3K9 (human) = MAP3K9 (human) (UniProt P80192)
ACVR1 (human) = ACVR1 (human) (UniProt Q04771)
CAMK2D (human) = CAMK2D (human) (UniProt Q13557)
HIPK4 (human) = HIPK4 (human) (UniProt Q8NE63)
Sequence of HIPK4 (human) (Q8NE63 whole entry, looked up): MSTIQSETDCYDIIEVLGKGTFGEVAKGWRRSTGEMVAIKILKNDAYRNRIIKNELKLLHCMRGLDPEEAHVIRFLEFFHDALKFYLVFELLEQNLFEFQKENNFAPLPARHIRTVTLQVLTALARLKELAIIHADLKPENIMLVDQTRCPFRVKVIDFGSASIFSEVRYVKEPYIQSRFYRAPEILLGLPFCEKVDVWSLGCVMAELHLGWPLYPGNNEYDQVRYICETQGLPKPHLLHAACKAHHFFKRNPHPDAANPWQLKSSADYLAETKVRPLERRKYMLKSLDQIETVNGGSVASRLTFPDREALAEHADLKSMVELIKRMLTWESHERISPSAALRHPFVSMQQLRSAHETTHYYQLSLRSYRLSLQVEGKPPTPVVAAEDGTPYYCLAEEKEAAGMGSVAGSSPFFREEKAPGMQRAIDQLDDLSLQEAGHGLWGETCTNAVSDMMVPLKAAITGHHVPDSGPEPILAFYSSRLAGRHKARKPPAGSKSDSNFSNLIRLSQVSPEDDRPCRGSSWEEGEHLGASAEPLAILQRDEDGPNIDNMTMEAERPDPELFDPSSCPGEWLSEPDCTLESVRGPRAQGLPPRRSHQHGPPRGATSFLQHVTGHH

PRKCA (human) = PRKCA (human) (UniProt P17252)
CLK1 (human) = CLK1 (human) (UniProt P49759)
HCK (human) = HCK (human) (UniProt P08631)
MYLK (human) = MYLK (human) (UniProt Q15746)
MATK (human) = MATK (human) (UniProt P42679)
CDK6 CCND1 (human) = CDK6 CCND1 (human) (UniProt Q00534+P24385)
CDK4 CCND1 (human) = CDK4 CCND1 (human) (UniProt P24385+P11802)

| SMILES | residual activity (EPHA3 (human)) | residual activity (CDK3 CCNE1 (human)) | residual activity (CLK2 (human)) | residual activity (NLK (human)) | residual activity (NEK6 (human)) | residual activity (WNK2 (human)) | residual activity (MAP4K4 (human)) | residual activity (RPS6KA1 KD1 KD2 (human)) | residual activity (FGR (human)) | residual activity (FES (human)) | residual activity (CHUK (human)) | residual activity (TNK2 (human)) | residual activity (MELK (human)) | residual activity (ULK2 (human)) | residual activity (CSNK1G2 (human)) | residual activity (LTK (human)) | residual activity (RPS6KB1 (human)) | residual activity (PTK2 (human)) | residual activity (PRKCB2 (human)) | residual activity (MERTK (human)) | also measured |
| --- | --- | --- | --- | --- | --- | --- | --- | --- | --- | --- | --- | --- | --- | --- | --- | --- | --- | --- | --- | --- | --- |
| CC(C)[C@H](CO)Nc1nc(Nc2cc(N)cc(Cl)c2)c2ncn(C(C)C)c2n1 | 86.6% | 31.9% | 17.7% | 93.9% | 111% | 112% | 86.1% | 37.2% | 15% | 69.2% | 97.3% | 47.8% | 51.5% | 74.9% | 35.2% | 103% | 95.5% | 59.5% | 97.3% | 79.7% | residual activity (BLK (human)): 79.6%; residual activity (LCK (human)): 70.2%; residual activity (MAPK9 (human)): 99.8%; residual activity (PKN1 (human)): 93.3%; residual activity (RPS6KA6 KD1 KD2 (human)): 46.1%; residual activity (TEC (human)): 130%; residual activity (CHEK1 (human)): 96.2%; residual activity (PDGFRB (human)): 98.1%; residual activity (MAPK10 (human)): 94.6%; residual activity (FYN (human)): 18.9%; residual activity (PRKG1 (human)): 102% and 104%; residual activity (MAP3K9 (human)): 7.81%; residual activity (ACVR1 (human)): 99.4%; residual activity (CAMK2D (human)): 87.3%; residual activity (HIPK4 (human)): 96.4%; residual activity (PRKCA (human)): 66.1%; residual activity (CLK1 (human)): 51.9%; residual activity (HCK (human)): 27.3%; residual activity (MYLK (human)): 81.3%; residual activity (MATK (human)): 111% |
| O=C1Cc2c([nH]c3ccc(Br)cc23)-c2ccccc2N1 | 96% | 81.7% | 95.7% | 98.7% | 100% | 112% | 6.61% | 90.8% | 74.4% | 87.8% | 98.6% | 38.8% | 74.8% | 90.1% | 102% | 91.8% | 103% | 94.3% | 102% | 89.5% | residual activity (CDK6 CCND1 (human)): 83.4%; residual activity (MAPK9 (human)): 93.8%; residual activity (PKN1 (human)): 101%; residual activity (RPS6KA6 KD1 KD2 (human)): 95.9%; residual activity (TEC (human)): 96.4%; residual activity (CHEK1 (human)): 89%; residual activity (PDGFRB (human)): 93.2%; residual activity (MAPK10 (human)): 89.6%; residual activity (FYN (human)): 73.4%; residual activity (PRKG1 (human)): 93% and 95.9%; residual activity (MAP3K9 (human)): 64.6%; residual activity (ACVR1 (human)): 162%; residual activity (CAMK2D (human)): 91.1%; residual activity (HIPK4 (human)): 105%; residual activity (PRKCA (human)): 98.6%; residual activity (CLK1 (human)): 96.7%; residual activity (HCK (human)): 85.5%; residual activity (MYLK (human)): 96.3%; residual activity (MATK (human)): 93.6%; residual activity (CDK4 CCND1 (human)): 84% |
